# How the values were obtained:
# Test in all cases: relative viability (nuclei count vs DMSO), 5 days (fraction); higher = more cells survive
# [1] = compound: C1CNCCC1C2=CC(=NN2)C3=CC=NC=C3 + O=C(CCCCCCC(=O)Nc1ccccc1)NO [Vorinostat] (partner 1 µM)
# How it was run: (§1)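 Lung cancer cell lines, seeded in 1536-well plates, were treated the following day by pin tool with a single drug or with five library-drug doses (not always all listed) in √10 steps on top of a fixed anchor-drug dose. Cells were fixed and nuclei stained in one step after 5 days, and nuclei were counted. Relative viability is the nuclei count for treated wells divided by that for vehicle wells, reported as medians of duplicate plates.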
# [2] = compound: C1CNCCC1C2=CC(=NN2)C3=CC=NC=C3 + Nc1nc2[nH]cc(CCc3ccc(C(=O)N[C@@H](CCC(=O)O)C(=O)O)cc3)c2c(=O)[nH]1 [Pemetrexed] (partner 0.2 µM)
# How it was run: as §1
# [3] = compound: C1CNCCC1C2=CC(=NN2)C3=CC=NC=C3 + COc1cccc2cc(-c3nc([C@H]4CC[C@H](C(=O)O)CC4)n4ncnc(N)c34)[nH]c12 [OSI-027] (partner 0.5 µM)
# How it was run: as §1
# [4] = compound: C[C@@H](N)c1ccc(C(=O)Nc2ccnc3[nH]ccc23)cc1 + CS(=O)(=O)N1CCN(Cc2cc3nc(-c4cccc5[nH]ncc45)nc(N4CCOCC4)c3s2)CC1 [Pictilisib] (partner 1 µM)
# How it was run: as §1
Cell Line,relative viability ([1]; first compound 0.08 µM),relative viability ([1]; first compound 0.8 µM),relative viability ([1]; first compound 2.53 µM),relative viability ([1]; first compound 8 µM),relative viability ([2]; first compound 0.08 µM),relative viability ([2]; first compound 0.8 µM),relative viability ([2]; first compound 2.53 µM),relative viability ([2]; first compound 8 µM),relative viability ([3]; first compound 0.08 µM),relative viability ([3]; first compound 0.8 µM),relative viability ([3]; first compound 2.53 µM),relative viability ([3]; first compound 8 µM),relative viability ([4]; first compound 0.04 µM),relative viability ([4]; first compound 0.1265 µM),relative viability ([4]; first compound 0.4 µM),relative viability ([4]; first compound 1.265 µM),relative viability ([4]; first compound 4 µM)
NCI-H596,0.73,0.417,0.638,0.589,0.483,0.476,0.525,0.478,0.838,0.763,0.784,0.736,0.435,0.44,0.408,0.416,0.319
NCI-H647,0.572,0.739,0.632,0.635,0.176,0.146,0.174,0.189,0.631,0.68,0.66,0.589,0.301,0.394,0.451,–,0.42
NCI-H650,0.433,0.437,0.434,0.546,0.956,0.967,0.951,1.02,0.513,0.58,0.505,0.543,0.81,0.753,0.704,–,0.708
NCI-H661,0.745,0.845,0.804,0.78,0.967,0.942,0.939,0.891,0.707,0.835,0.739,0.634,0.433,0.54,0.454,0.351,0.509
NCI-H838,0.763,0.744,0.744,0.688,0.24,0.259,0.248,0.284,0.385,0.423,0.394,0.491,0.402,0.421,0.335,0.31,0.317
NCI-H1355,0.637,0.629,0.788,0.637,1.09,1.08,1.07,1.02,0.446,0.372,0.472,0.476,0.338,0.429,0.555,–,0.351
NCI-H1395,0.668,0.597,0.842,0.792,0.782,0.803,1.03,0.861,0.603,0.57,0.71,0.694,0.566,0.626,0.655,–,0.627
NCI-H1437,0.863,0.94,0.912,0.971,0.334,0.312,0.363,0.303,0.835,0.922,0.896,0.97,0.468,0.419,0.407,0.396,0.488
NCI-H1650,0.46,0.597,0.804,0.489,0.374,0.422,0.331,0.381,0.552,0.744,0.751,0.625,0.672,0.584,0.595,0.318,0.586
NCI-H1651,0.512,0.581,0.577,0.589,0.592,0.597,0.608,0.575,0.649,0.767,0.827,0.76,0.663,0.646,0.684,0.808,0.799
NCI-H1666,0.964,1.06,1.07,1.08,0.788,0.804,0.873,0.909,0.871,0.967,0.794,0.878,0.527,0.407,0.498,0.476,0.728
NCI-H1734,0.749,0.873,0.89,0.85,0.407,0.431,0.426,0.433,0.543,0.616,0.674,0.653,0.475,0.474,0.461,–,0.353
NCI-H1755,0.717,0.737,0.628,0.736,0.475,0.439,0.433,0.329,0.738,–,0.754,0.69,0.418,0.487,0.517,0.382,0.364
NCI-H1793,0.647,–,0.985,0.874,0.805,–,0.929,0.974,0.261,0.246,0.302,0.23,0.251,0.437,0.327,–,0.402
NCI-H1915,0.542,0.554,0.519,0.55,0.579,0.502,0.525,0.471,0.643,0.641,0.623,0.646,1.15,0.92,0.925,–,0.837
NCI-H1944,0.435,0.555,0.603,0.522,0.564,0.595,0.67,0.557,0.41,0.413,0.546,0.423,0.398,0.339,0.337,–,0.345
NCI-H1975,0.74,0.758,0.702,0.685,0.313,0.307,0.303,0.29,0.703,0.778,0.774,0.777,0.281,0.281,0.287,0.228,0.236

Cell Line,relative viability ([1]; first compound 0.08 µM),relative viability ([1]; first compound 0.8 µM),relative viability ([1]; first compound 2.53 µM),relative viability ([1]; first compound 8 µM),relative viability ([2]; first compound 0.08 µM),relative viability ([2]; first compound 0.8 µM),relative viability ([2]; first compound 2.53 µM),relative viability ([2]; first compound 8 µM),relative viability ([3]; first compound 0.08 µM),relative viability ([3]; first compound 0.8 µM),relative viability ([3]; first compound 2.53 µM),relative viability ([3]; first compound 8 µM),relative viability ([4]; first compound 0.04 µM),relative viability ([4]; first compound 0.1265 µM),relative viability ([4]; first compound 0.4 µM),relative viability ([4]; first compound 1.265 µM),relative viability ([4]; first compound 4 µM)
NCI-H1993,0.883,0.722,0.767,1.03,0.607,0.342,0.535,0.689,0.581,0.533,0.529,0.578,0.801,0.865,–,0.812,0.833
NCI-H2009,0.754,0.693,0.8,0.728,0.958,1.05,0.992,1.03,0.761,0.699,0.749,0.725,0.77,0.768,0.886,0.22,0.753
NCI-H2023,0.262,0.589,0.767,0.602,0.206,0.222,0.224,0.241,0.347,0.48,0.457,0.503,0.283,0.26,0.403,0.139,0.301
NCI-H2085,0.858,–,0.809,0.845,1.1,–,0.96,0.969,0.818,0.515,0.682,0.935,0.6,0.63,0.581,0.704,0.606
NCI-H2087,0.682,0.8,0.738,0.684,0.722,0.679,0.635,0.666,0.471,0.616,0.619,0.573,1.04,0.78,0.908,0.153,0.797
NCI-H2126,0.79,0.712,0.778,0.797,0.643,0.625,0.694,0.728,0.724,0.591,0.725,0.698,0.632,0.494,0.55,0.349,0.6
NCI-H2170,0.658,0.825,0.771,0.762,0.269,0.283,0.288,0.266,0.611,0.697,0.776,0.686,0.337,0.319,0.295,0.204,0.266
NCI-H2228,0.537,0.589,0.667,0.587,0.31,0.373,0.384,0.356,0.61,0.653,0.649,0.689,0.441,0.503,0.335,0.319,0.491
NCI-H2347,0.541,0.486,0.573,0.627,0.441,0.409,0.422,0.422,0.494,0.291,0.442,0.487,0.472,0.667,0.727,0.832,0.796
NCI-H2405,1.04,0.993,1.06,0.901,1.05,1.1,1.11,1,0.72,0.627,0.731,0.674,–,0.433,0.399,0.194,0.207
NCI-H3122,0.717,0.994,1.05,1.12,0.193,0.212,0.197,0.202,0.856,1.02,1.05,0.981,0.72,0.721,0.716,0.687,0.728
PC-3 [JPC-3],0.94,0.797,0.881,0.834,0.966,1.22,1.15,0.998,0.827,0.776,0.835,0.705,0.741,0.784,0.788,0.632,0.683
PC-14,0.536,0.712,0.897,0.7,0.107,0.134,0.138,0.131,0.722,1.12,0.986,0.822,0.679,0.699,0.684,0.665,0.612
RERF-LC-KJ,0.553,0.727,0.862,0.712,0.464,0.493,0.516,0.463,0.537,0.521,0.581,0.576,0.575,0.541,0.558,0.585,0.492
SK-LU-1,0.783,0.766,0.857,0.729,0.955,1.04,1.04,0.976,0.386,0.346,0.346,0.342,0.589,0.621,0.549,0.608,0.544
SK-MES-1,0.979,0.978,1.22,1.07,0.985,0.9,0.989,0.94,0.51,0.565,0.624,0.593,0.375,0.39,0.359,0.395,0.404
SW 1573,–,0.642,1.01,0.967,–,0.881,0.912,0.992,–,0.666,0.727,0.752,0.467,0.56,0.543,0.539,0.43

# — the supplement of paper PMC10307832
